The subject of assay [1] is MT4. In words: Effective concentration required to achieve 50% protection of MT-4 cells against the cytopathic effect of HIV-1. The assay is classed as functional, cell-based. The conditions noted are these: Homo sapiens. For orientation: Cytopathic effects are the visible damage that an infection or toxin causes in cultured cells.
In assay [2] the test system is MT4. As to the kind of experiment: Cytotoxic concentration required to reduce viability of mock-infected MT-4 cells by 50%. Format: functional. The note with it: Homo sapiens.

The structures appear in SMILES notation.

We go through seven compounds from ChEMBL document CHEMBL1126533, “Synthesis of a potential photoaffinity labelling reagent for HIV-1 reverse transcriptase” (Bioorg Med Chem Lett, 1993).

In general, EC50 refers to the concentration needed to bring the measured effect to its halfway point. Read a high EC50 as a less potent agent. As usually defined, the CC50 is the concentration giving 50% cytotoxicity. Turning to `CCOCn1c(C(=O)c2cccc([N+](=O)[O-])c2)c(CC)c(=O)[nH]c1=O`, in the assay on MT4 [1], the EC50 was 0.21 µM. In the assay on MT4 [2], this compound gave a CC50 of 232 µM.
On the same counts, the results for `CCOCn1c(Cc2cccc(N)c2)c(CC)c(=O)[nH]c1=O` are 0.14 µM and 297 µM.
`CCOCn1c(Cc2cccc(O)c2)c(CC)c(=O)[nH]c1=O` gave an EC50 in the assay on MT4 [1] of 0.4 µM. This compound also showed a CC50 in the assay on MT4 [2] of 201 µM.
The compound `Cc1c(Sc2ccccc2)n(COCCO)c(=O)[nH]c1=O` [HEPT] came in with a cytotoxic concentration (CC50) with MT4 [2] of 740 µM.
In the assay with MT4 [1], `CCOCn1c(Sc2ccccc2)c(CC)c(=O)[nH]c1=O` showed an EC50 of 0.018 µM. The same compound had a CC50 in the assay with MT4 [2] of 197 µM.
Taken in the same sequence, the figures for `CCOCn1c(C(OC(C)=O)c2cccc([N+](=O)[O-])c2)c(CC)c(=O)[nH]c1=O` (stereo not drawn) were 29 µM and 283 µM.
Taken in the same sequence, the figures for `CCOCn1c(Cc2cccc(N=[N+]=[N-])c2)c(CC)c(=O)[nH]c1=O` were 0.011 µM and 117 µM.
